Literature values, collected in patent US8410049B2, “Methods and kits for preventing hypoglycemia” (Cebix, priority 2009, dated 2013).

Settings: in vivo; cited from earlier work

Substance | Peak time of effect | Duration of activity | Onset of action [min]
Aspart | around 30 minutes |  | 
Glargine insulin | no peak effect | 24 h | 
Glulisine | around 30 minutes |  | 
Lantus |  | up to 24 hours | 
Lispro | around 30 minutes |  | 
Regular insulin |  |  | 30 to 60
